Legend:
[1] = refractive index (Na D-line) (dimensionless); xn = mol fraction of the nth substance listed; details: 298.15 K, 101 kPa, Liquid, Standard Abbe refractometry
[2] = xn = mol fraction of the nth substance listed; details: 298.15 K, 101 kPa, Liquid, Vibrating tube method
[3] = refractive index (Na D-line) (dimensionless); details: 298.15 K; 101.33 kPa; Liquid; Standard Abbe refractometry
[4] = 298.15 K; 101.33 kPa; Liquid; Vibrating tube method

CC(CC(C)(C)C)CP(=O)([O-])CC(C)CC(C)(C)C.CCCCCCCCCCCCCC[P+](CCCCCC)(CCCCCC)CCCCCC + CCO
Details	mass density, [2] [kg/m3]	refractive index, [1]
x2 = 0.051	886.25	1.47094
x2 = 0.1022	886.05	1.47076
x2 = 0.2136	885.54	1.46988
x2 = 0.305	885	1.46895
x2 = 0.4024	884.17	1.46802
x2 = 0.5019	882.93	1.46563
x2 = 0.5976	881.05	1.46367
x2 = 0.6989	877.74	1.459
x2 = 0.7998	871	1.45104
x2 = 0.9003	854.34	1.44331
x2 = 0.9499	840.31	1.43816

CCOC(C)(C)C [2-ethoxy-2-methylpropane]
Details	mass density [kg/m3]	refractive index
[3]	–	1.37358
[4]	735.85	–

CC(CC(C)(C)C)CP(=O)([O-])CC(C)CC(C)(C)C.CCCCCCCCCCCCCC[P+](CCCCCC)(CCCCCC)CCCCCC + CCOC(C)(C)C
Details	mass density, [2] [kg/m3]	refractive index, [1]
x2 = 0.0425	886	1.4696
x2 = 0.0954	885.1	1.4691
x2 = 0.2026	882.46	1.4673
x2 = 0.2904	879.48	1.4653
x2 = 0.4013	874.66	1.4623
x2 = 0.4971	869.23	1.4587
x2 = 0.6023	861.11	1.4539
x2 = 0.7002	850.33	1.4464
x2 = 0.7999	832.96	1.435
x2 = 0.8998	802.31	1.4225
x2 = 0.9503	776.41	1.4154

CCO [ethanol]
Details	mass density [kg/m3]	refractive index
[3]	–	1.35925
[4]	785.22	–

CC(CC(C)(C)C)CP(=O)([O-])CC(C)CC(C)(C)C.CCCCCCCCCCCCCC[P+](CCCCCC)(CCCCCC)CCCCCC
Details	mass density [kg/m3]	refractive index
[3]	–	1.47125
[4]	886.43	–

CCCCCCCCCCCCCC[P+](CCCCCC)(CCCCCC)CCCCCC.[Cl-] [trihexyl(tetradecyl)phosphonium chloride]
Details	mass density [kg/m3]	refractive index
[3]	–	1.48175
[4]	891.82	–

CCCCCCCCCCCCCC[P+](CCCCCC)(CCCCCC)CCCCCC.[Cl-] [trihexyl(tetradecyl)phosphonium chloride] + CCOC(C)(C)C
Details	mass density, [2] [kg/m3]	refractive index, [1]
x2 = 0.0473	890.24	1.4804
x2 = 0.1037	888.11	1.4788
x2 = 0.1961	884.09	1.4762
x2 = 0.3076	878.3	1.4727
x2 = 0.3968	872.72	1.4688
x2 = 0.5075	864.28	1.4624
x2 = 0.5981	855.37	1.4562
x2 = 0.6992	841.62	1.4463
x2 = 0.7993	821.34	1.432
x2 = 0.8987	790.03	1.4104
x2 = 0.9496	767.05	1.3943

— the NIST ThermoML archive (doi:10.1016/j.fluid.2013.01.022)
